Structures can show the parent of a compound that is named as a salt. Where two headings read alike, the source gives them in different places.

The source of these data is US20240124443A1, “PLASMIN INHIBITOR, PREPARATION METHOD THEREFOR, AND APPLICATION THEREOF” (SCINNOHUB PHARMACEUTICAL CO., LTD, priority 2021, published 2024).

This test has as its system degradation of plasma clots. The test is described as follows: Plasma clot lysis assay. The class given is biochemical, human. The protocol:
To determine the inhibitory effect of the compounds of the invention on the degradation of plasma clots.
3.1 Collect fresh healthy human blood, mix 1 part of anticoagulant (0.109 M trisodium citrate) with 9 parts of blood, centrifuge at 2000×g for 20 min at room temperature, collect the supernatant (plasma), sub-package and store at −80° C. for later use.
3.2 On the day of experiment, the plasma was thawed in a water bath at 37° C., and all reagents except tPA were pre-warmed at 37° C.
3.3 Add 12.5 μL of 80 mM CaCl2 (HEPES buffer, pH 7.4) to a 96-well plate, and then add 25 μL of different concentrations of test compound diluted with normal saline, add an equal volume of normal saline to the negative control well.
3.4 Mix 50 μL of pre-warmed plasma with 12.5 μL of 4 nM tPA (HEPES buffer, pH 7.4), immediately add to a 96-well plate, measure the absorbance at 405 nm every 2 minutes, continuously for 15 hours.
The time corresponding to the median of the absorption value in the descending section—the time corresponding to the median of the absorption value in the ascending section is the plasma clot degradation time (Clot lysis time). Taking the plasma clot lysis time of the negative control well as a reference, calculate the relative value of the plasma clot lysis time in the wells treated with different concentrations of the compound and the plasma clot lysis time of the negative control well to obtain the inhibition rate:
Inhibition rate%=(1−Clot lysis time of negative control well/Clot lysis time of compound treated well)×100%
Taking the log value of the compound concentration as the X-axis, and the percentage inhibition rate as the Y-axis, and dose-response curves were fitted with the software GraphPad Prism 5 by using log (inhibitor) vs. Response-Variable slope to derive IC50 values of compounds inhibiting the degradation of plasma clots.
Formula: Y=min+(max−min)/(1+10^((LogIC50−X)×Hillslope).

Where [1] appears, read: human plasma, tPA, inhibition of plasma clot degradation in vitro relative to tranexamic acid.

On to `Cl.O=C(O)c1ccc2c(n1)C(O)CNC2` (stereo not drawn) [Example 2, 8-hydroxy-5,6,7,8-tetrahydro-1,6-naphthyridine-2-carboxylic acid hydrochloride], for which, under setting [1], the “IC50 ratio (IC50 Examples/IC50 Tranexamic acid)” value (shortened to “IC50 ratio”) was 1.24.

`NC1CNCc2ccc(C(=O)O)nc21` (stereo not drawn) [Example 3, 8-amino-5,6,7,8-tetrahydro-1,6-naphthyridine-2-carboxylic acid dihydrochloride]: the “IC50 ratio” value under setting [1] is given as 2.89.

Take `Cl.O=C(O)c1ccc2c(n1)C(N1CCOCC1)CNC2` (stereo not drawn) [Example 5, 8-morpholino-5,6,7,8-tetrahydro-1,6-naphthyridine-2-carboxylic acid hydrochloride]: under setting [1], the “IC50 ratio” value was 0.29.

Consider `Cl.O=C(O)c1ccc2c(n1)C(N1CCS(=O)(=O)CC1)CNC2` (stereo not drawn) [Example 6, 8-(1,1-dioxido-thiomorpholino)-5,6,7,8-tetrahydro-1,6-naphthyridine-2-carboxylic acid hydrochloride], for which the “IC50 ratio” value under setting [1] stood at 0.31.

With `Cl.O=C(O)c1ccc2c(n1)CC(COCCCO)NC2` (stereo not drawn) [Example 7, 7-((3-hydroxypropoxy)methyl)-5,6,7,8-tetrahydro-1,6-naphthyridine-2-carboxylic acid hydrochloride], the “IC50 ratio” value under setting [1] turned out to be 0.25.

`Cl.O=C(O)c1ccc2c(n1)CC(C1(O)CC1)NC2` (stereo not drawn) [Example 9, 7-(1-hydroxycyclopropyl)-5,6,7,8-tetrahydro-1,6-naphthyridine-2-carboxylic acid hydrochloride]: the “IC50 ratio” value under setting [1] is given as 0.44.

In the case of `Cl.O=C(O)c1ccc2c(n1)CC(CCCCO)NC2` (stereo not drawn) [Example 10, 7-(4-hydroxybutyl)-5,6,7,8-tetrahydro-1,6-naphthyridine-2-carboxylic acid hydrochloride], the “IC50 ratio” value under setting [1] was determined as 0.18.

For the compound `O=C(O)c1ccc2c(n1)CC(CNCCCO)NC2` (stereo not drawn) [Example 11, 7-(((3-hydroxypropyl)amino)methyl)-5,6,7,8-tetrahydro-1,6-naphthyridine-2-carboxylic acid dihydrochloride], the “IC50 ratio” value under setting [1] is 2.58.

With `Cl.O=C(O)c1ccc2c(n1)CC(C(O)c1ccccc1)NC2` (stereo not drawn) [Example 12, 7-(hydroxy(phenyl)methyl)-5,6,7,8-tetrahydro-1,6-naphthyridine-2-carboxylic acid hydrochloride], under setting [1], the “IC50 ratio” value is 0.88.

Consider `Cl.O=C(O)c1ccc2c(n1)CC(C(O)CCCO)NC2` (stereo not drawn) [Example 13, 7-(1,4-dihydroxybutyl)-5,6,7,8-tetrahydro-1,6-naphthyridine-2-carboxylic acid hydrochloride], for which the “IC50 ratio” value came out at 1.63.

In the case of `Cl.O=C(O)c1ccc2c(n1)C(N1CCOC(Cc3ccccc3)C1)CNC2` (stereo not drawn) [Example 15, 8-(2-benzylmorpholino)-5,6,7,8-tetrahydro-1,6-naphthyridine-2-carboxylic acid hydrochloride], the “IC50 ratio” value under setting [1] turned out to be 0.57.

Consider `Cl.O=C(O)c1ccc2c(n1)CC(C(=O)O)NC2` (stereo not drawn) [Example 16, 5,6,7,8-tetrahydro-1,6-naphthyridine-2,7-dicarboxylic acid hydrochloride], for which the “IC50 ratio” value under setting [1] was found to be 0.54.

With `Cl.O=C(O)c1nc2c(cc1F)CNCC2` [Example 17, 3-fluoro-5,6,7,8-tetrahydro-1,6-naphthyridine-2-carboxylic acid hydrochloride], under setting [1], the “IC50 ratio” value amounted to 0.34.

Consider `Cl.O=C(O)c1ccc2c(n1)C(OCCO)CNC2` (stereo not drawn) [Example 18], for which, under setting [1], the “IC50 ratio” value is recorded as 0.66.

`Cl.O=C(O)c1ccc2c(n1)C(N1CCCCC1)CNC2` (stereo not drawn) [Example 19]: under setting [1], the “IC50 ratio” value is reported as 5.75.

Turning to `Cl.O=C(O)c1ccc2c(n1)C(N1CCSCC1)CNC2` (stereo not drawn) [Example 20], under setting [1], the “IC50 ratio” value is 0.50.

With `Cl.O=C(O)c1ccc2c(n1)C(N1CC[S+]([O-])CC1)CNC2` (stereo not drawn) [Example 21], under setting [1], the “IC50 ratio” value is 0.14.

In the case of `Cl.O=C(O)c1ccc2c(n1)C(N1CCNCC1)CNC2` (stereo not drawn) [Example 22], under setting [1], the “IC50 ratio” value was determined as 0.67.

Turning to `Cl.O=C(O)c1ccc2c(n1)CC(CO)NC2` (stereo not drawn) [Example 23], the “IC50 ratio” value under setting [1] is reported as 0.17.

Take `CC(C)(O)C1Cc2nc(C(=O)O)ccc2CN1.Cl` (stereo not drawn) [Example 24]: under setting [1], the “IC50 ratio” value stood at 1.67.

`Cl.O=C(O)c1ccc2c(n1)CC(CO)(CO)NC2` [Example 25]: under setting [1], the “IC50 ratio” value turned out to be 6.36.

Turning to `CC(C)CC1Cc2nc(C(=O)O)ccc2CN1.Cl` (stereo not drawn) [Example 26], under setting [1], the “IC50 ratio” value worked out at 0.22.

`Cl.O=C(O)c1ccc2c(n1)CC(Cc1ccccc1)NC2` (stereo not drawn) [Example 27]: the “IC50 ratio” value under setting [1] was 0.67.

For the compound `Cl.O=C(O)c1ccc2c(n1)CC(CCCCCO)NC2` (stereo not drawn) [Example 28], under setting [1], the “IC50 ratio” value is recorded as 0.27.

With `Cl.O=C(O)c1ccc2c(n1)CC(C(=O)NCCO)NC2` (stereo not drawn) [Example 29], the “IC50 ratio” value under setting [1] is listed as 2.26.

Consider `Cl.O=C(O)c1ccc2c(n1)CC(C(=O)OCCCO)NC2` (stereo not drawn) [Example 30], for which the “IC50 ratio” value under setting [1] is on record as 0.32.

As to `O=C(O)c1ccc2c(n1)CC(CNCCO)NC2` (stereo not drawn) [Example 31], the “IC50 ratio” value under setting [1] is 1.87.

Turning to `Cl.O=C(O)c1ccc2c(n1)CC(COCCO)NC2` (stereo not drawn) [Example 32], the “IC50 ratio” value under setting [1] was 0.61.

Consider `CC(C)C(O)C1Cc2nc(C(=O)O)ccc2CN1.Cl` (stereo not drawn) [Example 33], for which the “IC50 ratio” value under setting [1] came out at 0.53.

With `Cl.O=C(O)c1ccc2c(n1)CC(CCCc1ccccc1)NC2` (stereo not drawn) [Example 34], the “IC50 ratio” value under setting [1] is recorded as 0.11.

In the case of `Cl.O=C(O)c1ccc2c(n1)CC(CCc1ccccc1)NC2` (stereo not drawn) [Example 35], the “IC50 ratio” value under setting [1] worked out at 0.12.

With `CC(C)(C)CC1Cc2nc(C(=O)O)ccc2CN1.Cl` (stereo not drawn) [Example 36], the “IC50 ratio” value under setting [1] amounted to 0.13.

On to `CC(C)C1Cc2nc(C(=O)O)ccc2CN1.Cl` (stereo not drawn) [Example 37], for which, under setting [1], the “IC50 ratio” value is listed as 0.18.

For the compound `CC(C)CCC1Cc2nc(C(=O)O)ccc2CN1.Cl` (stereo not drawn) [Example 38], the “IC50 ratio” value under setting [1] is given as 0.13.

With `CCCC1Cc2nc(C(=O)O)ccc2CN1.Cl` (stereo not drawn) [Example 39], the “IC50 ratio” value under setting [1] came out at 0.17.

`CC(C)(C)CCC1Cc2nc(C(=O)O)ccc2CN1.Cl` (stereo not drawn) [Example 40]: the “IC50 ratio” value under setting [1] came out at 0.18.

In the case of `Cl.O=C(O)c1ccc2c(n1)CC(CC1CCCCC1)NC2` (stereo not drawn) [Example 41], the “IC50 ratio” value under setting [1] came to 0.12.

Take `COc1ccc(CCC2Cc3nc(C(=O)O)ccc3CN2)cc1.Cl` (stereo not drawn) [Example 42]: the “IC50 ratio” value under setting [1] was 0.17.

For `Cl.O=C(O)c1ccc2c(n1)CC(CCC1CCCCC1)NC2` (stereo not drawn) [Example 43], the “IC50 ratio” value under setting [1] is 0.11.

With `Cl.O=C(O)c1ccc2c(n1)CC1(CCOCC1)NC2` [Example 44], the “IC50 ratio” value under setting [1] is recorded as 0.23.

Regarding `CCC1(CC)Cc2nc(C(=O)O)ccc2CN1.Cl` [Example 45, 7,7-diethyl-5,6,7,8-tetrahydro-1,6-naphthyridine-2-carboxylic acid hydrochloride], the “IC50 ratio” value under setting [1] is given as 0.57.

As for `Cl.O=C(O)c1ccc2c(n1)CC1(CCCC1)NC2` [Example 46], the “IC50 ratio” value under setting [1] was found to be 0.33.

In the case of `Cl.O=C(O)c1ccc2c(n1)CC1(CCCCC1)NC2` [Example 47], the “IC50 ratio” value under setting [1] is on record as 0.40.

`CC(C)CC1(CC(C)C)Cc2nc(C(=O)O)ccc2CN1.Cl` [Example 48]: under setting [1], the “IC50 ratio” value is 0.42.

As to `Cl.O=C(O)c1ccc2c(n1)CC1(CCC1)NC2` [Example 49], the “IC50 ratio” value under setting [1] stood at 0.28.
